Measured values reported in PubChem BioAssay AID1918954 (Molecular Pharmacology Branch, DTP, NCI, 2023).

Tested on: MDA-MB-468 complex spheroids with HUVEC/MSC, viability
Experiment: Anticancer human tumor MDA-MB-468 cell line growth inhibition;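 further: spheroids exposed to agents for seven days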;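 on viability, T/C: 100% = DMSO vehicle control viability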
Settings: for IC50: curve of first compound; for viability, T/C: stronger effect = lower value
In short: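 Drug combinations with the LSD1 inhibitor iadademstat tested on tumor cells co-cultured as spheroids with endothelial cells and mesenchymal stem cells. Concentrations descended in half-log increments from clinical Cmax or 10 microM.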

[1] = second compound 0.1 µM, first compound 0.000316 µM
[2] = second compound 0.1 µM, first compound 0.001 µM
[3] = second compound 0.1 µM, first compound 0.00316 µM
[4] = second compound 0.1 µM, first compound 0.01 µM
[5] = second compound 0.1 µM, first compound 0.0316 µM
[6] = second compound 0.1 µM, first compound 0.1 µM
[7] = second compound 0.316 µM, first compound 0.000316 µM
[8] = second compound 0.316 µM, first compound 0.001 µM
[9] = second compound 0.316 µM, first compound 0.00316 µM
[10] = second compound 0.316 µM, first compound 0.01 µM
[11] = second compound 0.316 µM, first compound 0.0316 µM
[12] = second compound 0.316 µM, first compound 0.1 µM
[13] = second compound 1 µM, first compound 0.000316 µM
[14] = second compound 1 µM, first compound 0.001 µM
[15] = second compound 1 µM, first compound 0.00316 µM
[16] = second compound 1 µM, first compound 0.01 µM
[17] = second compound 1 µM, first compound 0.0316 µM
[18] = second compound 1 µM, first compound 0.1 µM
[19] = second compound 3.16 µM, first compound 0.000316 µM
[20] = second compound 3.16 µM, first compound 0.001 µM
[21] = second compound 3.16 µM, first compound 0.00316 µM
[22] = second compound 3.16 µM, first compound 0.01 µM
[23] = second compound 3.16 µM, first compound 0.0316 µM
[24] = second compound 3.16 µM, first compound 0.1 µM
[25] = second compound 10 µM, first compound 0.000316 µM
[26] = second compound 10 µM, first compound 0.001 µM
[27] = second compound 10 µM, first compound 0.00316 µM
[28] = second compound 10 µM, first compound 0.01 µM
[29] = second compound 10 µM, first compound 0.0316 µM
[30] = second compound 10 µM, first compound 0.1 µM

`CC(C)CC(NC(=O)C(Cc1ccccc1)NC(=O)c1cnccn1)B(O)O` (stereo not given) + NC1CC1c1ccc(-c2cccc(O)c2)cc1 showed an IC50 (second compound 0.1 µM) of under 0.316 nM, an IC50 (second compound 0.316 µM) of under 0.316 nM and an IC50 (second compound 1 µM) of under 0.316 nM. The IC50 (second compound 3.16 µM) was under 0.316 nM, the IC50 (second compound 10 µM) was under 0.316 nM and the viability, T/C [1] was 5.95%. The viability, T/C [2] was 0.09%, the viability, T/C [3] was 0.06% and the viability, T/C [4] was 0.05%. For the same compound, the viability, T/C [5] was 0.08%, the viability, T/C [6] was 0.18% and the viability, T/C [7] was 6.43%. The viability, T/C [8] was 0.09%, the viability, T/C [9] was 0.05% and the viability, T/C [10] was 0.07%. For the same compound, the viability, T/C [11] was 0.08%, the viability, T/C [12] was 0.17% and the viability, T/C [13] was 5.88%. For the same compound, the viability, T/C [14] was 0.08%, the viability, T/C [15] was 0.05% and the viability, T/C [16] was 0.04%. For the same compound, the viability, T/C [17] was 0.06%, the viability, T/C [18] was 0.17% and the viability, T/C [19] was 5.66%. For the same compound, the viability, T/C [20] was 0.06%, the viability, T/C [21] was 0.07% and the viability, T/C [22] was 0.04%. The viability, T/C [23] was 0.14%, the viability, T/C [24] was 0.15% and the viability, T/C [25] was 3.55%. It also gave a viability, T/C [26] of 0.16%, a viability, T/C [27] of 0.12% and a viability, T/C [28] of 0.12%. It also gave a viability, T/C [29] of 0.14% and a viability, T/C [30] of 0.2%.
Compound `CC(C)CC(NC(=O)CNC(=O)c1cc(Cl)ccc1Cl)B1OC(=O)CC(CC(=O)O)(C(=O)O)O1` (stereo not given) + NC1CC1c1ccc(-c2cccc(O)c2)cc1 has an IC50 (second compound 0.1 µM) of 2.57 nM, an IC50 (second compound 0.316 µM) of 2.49 nM and an IC50 (second compound 1 µM) of 2.74 nM. It also gave an IC50 (second compound 3.16 µM) of 2.32 nM, an IC50 (second compound 10 µM) of 1.54 nM and a viability, T/C [1] of 111%. For the same compound, the viability, T/C [2] was 106%, the viability, T/C [3] was 37.6% and the viability, T/C [4] was 4.72%. It also gave a viability, T/C [5] of 0.18%, a viability, T/C [6] of 0.16% and a viability, T/C [7] of 118%. For the same compound, the viability, T/C [8] was 94.2%, the viability, T/C [9] was 39% and the viability, T/C [10] was 5.32%. For the same compound, the viability, T/C [11] was 0.16%, the viability, T/C [12] was 0.15% and the viability, T/C [13] was 105%. For the same compound, the viability, T/C [14] was 109%, the viability, T/C [15] was 41.8% and the viability, T/C [16] was 5.14%. It also gave a viability, T/C [17] of 0.2%, a viability, T/C [18] of 0.14% and a viability, T/C [19] of 106%. The viability, T/C [20] was 100%, the viability, T/C [21] was 31.4% and the viability, T/C [22] was 5.19%. It also gave a viability, T/C [23] of 0.17%, a viability, T/C [24] of 0.14% and a viability, T/C [25] of 71.4%. For the same compound, the viability, T/C [26] was 62.5%, the viability, T/C [27] was 28.9% and the viability, T/C [28] was 4%. For the same compound, the viability, T/C [29] was 0.22% and the viability, T/C [30] was 0.24%.
In the case of `COc1cc(Nc2ncc3c(n2)-c2ccc(Cl)cc2C(c2c(F)cccc2OC)=NC3)ccc1C(=O)O` + NC1CC1c1ccc(-c2cccc(O)c2)cc1, the IC50 (second compound 0.1 µM) is reported as under 3.16 nM, the IC50 (second compound 0.316 µM) is reported as under 3.16 nM and the IC50 (second compound 1 µM) is reported as under 3.16 nM. For the same compound, the IC50 (second compound 3.16 µM) was under 3.16 nM, the IC50 (second compound 10 µM) was under 3.16 nM and the viability, T/C [3] was 15.5%. For the same compound, the viability, T/C [4] was 6.89%, the viability, T/C [5] was 6.01% and the viability, T/C [6] was 4.91%. The viability, T/C (second compound 0.1 µM, first compound 0.316 µM) was 3.38%, the viability, T/C (second compound 0.1 µM, first compound 1 µM) was 2.48% and the viability, T/C [9] was 14.5%. The viability, T/C [10] was 6.72%, the viability, T/C [11] was 5.86% and the viability, T/C [12] was 5.06%. It also gave a viability, T/C (second compound 0.316 µM, first compound 0.316 µM) of 3.01%, a viability, T/C (second compound 0.316 µM, first compound 1 µM) of 2.59% and a viability, T/C [15] of 14.1%. It also gave a viability, T/C [16] of 7.25%, a viability, T/C [17] of 5% and a viability, T/C [18] of 4.96%. It also gave a viability, T/C (second compound 1 µM, first compound 0.316 µM) of 2.88%, a viability, T/C (second compound 1 µM, first compound 1 µM) of 1.8% and a viability, T/C [21] of 14.1%. The viability, T/C [22] was 8%, the viability, T/C [23] was 5.68% and the viability, T/C [24] was 5.16%. For the same compound, the viability, T/C (second compound 3.16 µM, first compound 0.316 µM) was 3.35%, the viability, T/C (second compound 3.16 µM, first compound 1 µM) was 2.58% and the viability, T/C [27] was 12.6%. It also gave a viability, T/C [28] of 7.29%, a viability, T/C [29] of 6.71% and a viability, T/C [30] of 5.57%. It also gave a viability, T/C (second compound 10 µM, first compound 0.316 µM) of 3.87% and a viability, T/C (second compound 10 µM, first compound 1 µM) of 4.35%.
`O=C(C=Cc1cccc(S(=O)(=O)Nc2ccccc2)c1)NO` + NC1CC1c1ccc(-c2cccc(O)c2)cc1 gave an IC50 (second compound 0.1 µM) of 59.9 nM, an IC50 (second compound 0.316 µM) of 44.2 nM and an IC50 (second compound 1 µM) of 53.3 nM. For the same compound, the IC50 (second compound 3.16 µM) was 49.8 nM, the IC50 (second compound 10 µM) was 26.2 nM and the viability, T/C (second compound 0.1 µM, first compound 0.00949 µM) was 88.7%. The viability, T/C (second compound 0.1 µM, first compound 0.03 µM) was 74.8%, the viability, T/C (second compound 0.1 µM, first compound 0.0949 µM) was 25.8% and the viability, T/C (second compound 0.1 µM, first compound 0.3 µM) was 2.15%. For the same compound, the viability, T/C (second compound 0.1 µM, first compound 0.949 µM) was 0.17%, the viability, T/C (second compound 0.1 µM, first compound 3 µM) was 106% and the viability, T/C (second compound 0.316 µM, first compound 0.00949 µM) was 96.3%. The viability, T/C (second compound 0.316 µM, first compound 0.03 µM) was 59.3%, the viability, T/C (second compound 0.316 µM, first compound 0.0949 µM) was 23.1% and the viability, T/C (second compound 0.316 µM, first compound 0.3 µM) was 2.07%. For the same compound, the viability, T/C (second compound 0.316 µM, first compound 0.949 µM) was 0.17%, the viability, T/C (second compound 0.316 µM, first compound 3 µM) was 101% and the viability, T/C (second compound 1 µM, first compound 0.00949 µM) was 92.9%. For the same compound, the viability, T/C (second compound 1 µM, first compound 0.03 µM) was 70.3%, the viability, T/C (second compound 1 µM, first compound 0.0949 µM) was 25.5% and the viability, T/C (second compound 1 µM, first compound 0.3 µM) was 2.36%. It also gave a viability, T/C (second compound 1 µM, first compound 0.949 µM) of 0.14%, a viability, T/C (second compound 1 µM, first compound 3 µM) of 90.9% and a viability, T/C (second compound 3.16 µM, first compound 0.00949 µM) of 83.1%. For the same compound, the viability, T/C (second compound 3.16 µM, first compound 0.03 µM) was 64.5%, the viability, T/C (second compound 3.16 µM, first compound 0.0949 µM) was 23% and the viability, T/C (second compound 3.16 µM, first compound 0.3 µM) was 2.23%. For the same compound, the viability, T/C (second compound 3.16 µM, first compound 0.949 µM) was 0.16%, the viability, T/C (second compound 3.16 µM, first compound 3 µM) was 101% and the viability, T/C (second compound 10 µM, first compound 0.00949 µM) was 67.7%. It also gave a viability, T/C (second compound 10 µM, first compound 0.03 µM) of 47.7%, a viability, T/C (second compound 10 µM, first compound 0.0949 µM) of 17.7% and a viability, T/C (second compound 10 µM, first compound 0.3 µM) of 1.86%. The viability, T/C (second compound 10 µM, first compound 0.949 µM) was 0.19% and the viability, T/C (second compound 10 µM, first compound 3 µM) was 79.1%.
